Data taken from patent US11981686B2, “Urea compound having substituent” (DAIICHI SANKYO COMPANY, LIMITED, priority 2019, dated 2024).

Each compound was assayed against SIRT6 enzyme (Homo sapiens, UniProt Q8N6T7) (assay: Measurement of deacetylation activity (SIRT6, AlphaLISA, H3K9(Ac) peptide)). Settings: SIRT6 25 ng/mL, H3K9(Ac) biotin peptide 2 nM, NAD 10 μM, room temperature 30 minutes, duplicate.
Format: biochemical
Description: The reaction was performed in duplicate using a white 384-well plate (3824, Corning or 6008350, PerkinElmer) at a final reaction liquid volume of 20.1 μL. As a control for calculating the enzyme activity, the enzyme-added (DMSO (+)) and enzyme-free (DMSO (−)) wells were set at n=8. Test substances (examples of final concentrations: 0.046, 0.14, 0.41, 1.2, 3.7, 11, 33, and 100 μM) at a concentration of 100 times or 0.1 μL of DMSO was dispensed into the plate and 5 μL of SIRT6 enzyme (prepared by Daiichi Sankyo RD Novare Co., Ltd., final concentration: 25 ng/mL) diluted with an assay buffer (10 mM Tris-HCl pH of 8.0, 0.1% BSA, 0.01% Tween 20, 1 mM DTT, 12.5% Glycerol) was added thereto. The enzymatic reaction was started by adding 5 μL of a mixed solution [Lys(Ac)9]-Histone H3 (1-21)-NH2, H3K9 (Ac), biotin-labeled, amide (AnaSpec, AS-64190, final concentration: 2 nM) and β-nicotinamide adenine dinucleotide (Sigma-Aldrich, N8285-15VL, final concentration: 10 μM), and the reaction was performed at room temperature for 30 minutes. 10 μL of a mixed solution of nicotinamide (Sigma-Aldrich, 72340-100G, final concentration: 100 mM) prepared with AlphaLISA Epigenetics Buffer (PerkinElmer, AL008C), AlphaLISA Anti-unmodified Histone H3 Lysine 9/Lysine 27 (H3K9/K27) Acceptor Beads (PerkinElmer, AL138, final concentration: 10 μg/mL), and AlphaScreen Streptavidin Donor beads (PerkinElmer, 6760002, final concentration: 5 μg/mL) was added thereto, the reaction was performed at room temperature for 60 minutes and then stopped, and acetylation was detected. The emission intensity was measured by EnVision (PerkinElmer).
The relative enzyme activity (%) of the test substance was calculated by the following equation. Relative enzyme activity (%)=[(emission intensity of test substance-added well−emission intensity of DMSO (−) well)/(emission intensity of DMSO (+) well−emission intensity of DMSO (−) well)]×100
The EC150 (the concentration of the compound showing a relative enzyme activity of 150%) of the test substance was calculated based on Sigmoidal dose-response (variable slope) of GraphPad Prism (GraphPad Software) using the value of the relative enzyme activity (%) at each concentration, and the results are listed in Tables 1-1 to 1-5.

Sequence of SIRT6 enzyme (Q8N6T7 whole entry, species assumed): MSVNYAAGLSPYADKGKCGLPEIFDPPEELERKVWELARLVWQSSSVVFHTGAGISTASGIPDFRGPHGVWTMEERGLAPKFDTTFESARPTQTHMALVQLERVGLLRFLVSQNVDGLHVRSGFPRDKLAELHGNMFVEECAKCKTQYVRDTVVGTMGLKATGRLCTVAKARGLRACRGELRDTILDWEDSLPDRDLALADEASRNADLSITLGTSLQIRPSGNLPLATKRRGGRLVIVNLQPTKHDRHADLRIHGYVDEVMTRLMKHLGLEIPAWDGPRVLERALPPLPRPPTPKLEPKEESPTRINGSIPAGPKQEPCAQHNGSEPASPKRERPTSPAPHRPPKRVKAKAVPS

SMILES	EC150 (the concentration of the compound showing a relative enzyme activity of 150%) [μm]
CC(C)NC(=O)Nc1nc2c(s1)[C@@H]1COC[C@H](C2)N1c1nnc(-c2cccc(C(=O)C3CC3)c2)o1 [Example 117, N-[(4S,8S)-10-{5-[3-(cyclopropanecarbonyl)phenyl]-1,3,4-oxadiazol-2-yl}-4,7,8,9-tetrahydro-5H-4,8-epiminooxocino[5,4-d][1,3]thiazol-2-yl]-N′-propan-2-ylurea]	1
C[C@H](CO)NC(=O)Nc1nc2c(s1)[C@@H]1COC[C@H](C2)N1c1cc(-c2cccc(C(F)F)c2)on1 [Example 156, N-[(4S,8S)-10-{5-[3-(difluoromethyl)phenyl]-1,2-oxazol-3-yl}-4,7,8,9-tetrahydro-5H-4,8-epiminooxocino[5,4-d][1,3]thiazol-2-yl]-N′-[(2R)-1-hydroxypropan-2-yl]urea]	1
CNC(=O)Nc1nc2c(s1)C1CN(C(=O)OC)CC(C2)N1c1nc(C2CCC(F)(F)CC2)no1 (centres unmarked) [Example 132, Methyl 10-[3-(4,4-difluorocyclohexyl)-1,2,4-oxadiazol-5-yl]-2-[(methylcarbamoyl)amino]-4,7,8,9-tetrahydro-4,8-epimino[1,3]thiazolo[5,4-d]azocine-6(5H)-carboxylate]	0.39
CCOc1ccc2oc(N3[C@@H]4COC[C@H]3c3sc(NC(=O)NCC(C)(C)O)nc3C4)nc2c1 [Example 40, N-[(4S,8S)-10-(5-ethoxy-1,3-benzoxazol-2-yl)-4,7,8,9-tetrahydro-5H-4,8-epiminooxocino[5,4-d][1,3]thiazol-2-yl]-N′-(2-hydroxy-2-methylpropyl)urea]	3.1
CNC(=O)Nc1nc2c(s1)[C@@H]1COC[C@H](C2)N1c1nc2cc(C)ccc2o1 [Example 49, N-methyl-N′-[(4S,8S)-10-(5-methyl-1,3-benzoxazol-2-yl)-4,7,8,9-tetrahydro-5H-4,8-epiminooxocino[5,4-d][1,3]thiazol-2-yl]urea]	1.5
O=C(Nc1nc2c(s1)[C@@H]1COC[C@H](C2)N1c1nc(-c2ccc(F)cc2)no1)N[C@H]1C[C@@H](O)C1 [Example 85, N-{10-[3-(4-fluorophenyl)-1,2,4-oxadiazol-5-yl]-4,7,8,9-tetrahydro-5H-4,8-epiminooxocino[5,4-d][1,3]thiazol-2-yl}-N′-[(1s,3s)-3-hydroxycyclobutyl]urea]	0.51
CNC(=O)Nc1nc2c(s1)[C@@H]1COC[C@H](C2)N1c1nnc(-c2cccc(OC(C)C)c2)o1 [Example 122, N-methyl-N′-[(4S,8S)-10-(5-{3-[(propan-2-yl)oxy]phenyl}-1,3,4-oxadiazol-2-yl)-4,7,8,9-tetrahydro-5H-4,8-epiminooxocino[5,4-d][1,3]thiazol-2-yl]urea]	1.5
CNC(=O)Nc1nc2c(s1)C1CN(C(=O)OC)CC(C2)N1c1nc(C23CC(C(F)F)(C2)C3)no1 (centres unmarked) [Example 135, Methyl 10-{3-[3-(difluoromethyl)bicyclo[1.1.1]pentan-1-yl]-1,2,4-oxadiazol-5-yl}-2-[(methylcarbamoyl)amino]-4,7,8,9-tetrahydro-4,8-epimino[1,3]thiazolo[5,4-d]azocine-6(5H)-carboxylate]	2.1
O=C(Nc1nc2c(s1)[C@@H]1COC[C@H](C2)N1c1ncc(-c2cccc(OC(F)F)n2)o1)NC1CCS(=O)(=O)CC1 [Example 180, N-[(4S,8S)-10-{5-[6-(difluoromethoxy)pyridin-2-yl]-1,3-oxazol-2-yl}-4,7,8,9-tetrahydro-5H-4,8-epiminooxocino[5,4-d][1,3]thiazol-2-yl]-N′-(1,1-dioxo-1λ^6 thian-4-yl)urea]	0.14
C[C@H](O)CNC(=O)Nc1nc2c(s1)C1COCC(C2)N1c1nc(-c2ccc(F)cc2)no1 (stereo partly drawn) [Example 81, N-{10-[3-(4-fluorophenyl)-1,2,4-oxadiazol-5-yl]-4,7,8,9-tetrahydro-5H-4,8-epiminooxocino[5,4-d][1,3]thiazol-2-yl}-N′-[(2S)-2-hydroxypropyl]urea]	1.4
COc1cc(-c2noc(N3CCc4nc(NC(=O)NCc5nccn5C)sc4C3)n2)ccc1F [Example 100, N-{5-[3-(4-fluoro-3-methoxyphenyl)-1,2,4-oxadiazol-5-yl]-4,5,6,7-tetrahydro[1,3]thiazolo[5,4-c]pyridin-2-yl}-N′-[(1-methyl-1H-imidazol-2-yl)methyl]urea]	2.6
CNC(=O)Nc1nc2c(s1)[C@@H]1COC[C@H](C2)N1c1nc2cc(OC)ccc2o1 [Example 48, N-[(4S,8S)-10-(5-methoxy-1,3-benzoxazol-2-yl)-4,7,8,9-tetrahydro-5H-4,8-epiminooxocino[5,4-d][1,3]thiazol-2-yl]-N′-methylurea]	1.2
CC(C)(O)CNC(=O)Nc1nc2c(s1)[C@@H]1COC[C@H](C2)N1c1nc2cc(F)c(F)cc2o1 [Example 146, N-[(4S,8S)-10-(5,6-difluoro-1,3-benzoxazol-2-yl)-4,7,8,9-tetrahydro-5H-4,8-epiminooxocino[5,4-d][1,3]thiazol-2-yl]-N′-(2-hydroxy-2-methylpropyl)urea]	1.9
CCOc1cccc(-c2cnc(N3[C@@H]4COC[C@H]3c3sc(NC(=O)N[C@H]5C[C@H](O)C5)nc3C4)o2)n1 [Example 80, N-{(4S,8S)-10-[5-(6-ethoxypyridin-2-yl)-1,3-oxazol-2-yl]-4,7,8,9-tetrahydro-5H-4,8-epiminooxocino[5,4-d][1,3]thiazol-2-yl}-N′-[(1r,3S)-3-hydroxycyclobutyl]urea]	0.48
CNC(=O)Nc1nc2c(s1)[C@H]1CN(C(=O)C(C)C)C[C@@H](C2)N1c1nc(-c2ccc(F)cc2)no1 [Example 125, N-[(4R,8R)-10-[3-(4-fluorophenyl)-1,2,4-oxadiazol-5-yl]-6-(2-methylpropanoyl)-4,5,6,7,8,9-hexahydro-4,8-epimino[1,3]thiazolo[5,4-d]azocin-2-yl]-N′-methylurea]	2.4
CC(C)CNC(=O)Nc1nc2c(s1)[C@@H]1COC[C@H](C2)N1c1nc2cc(S(C)(=O)=O)ccc2o1 [Example 43, N-{(4S,8S)-10-[5-(methanesulfonyl)-1,3-benzoxazol-2-yl]-4,7,8,9-tetrahydro-5H-4,8-epiminooxocino[5,4-d][1,3]thiazol-2-yl}-N′-(2-methylpropyl)urea]	1.5
C[C@@H](O)CNC(=O)Nc1nc2c(s1)[C@@H]1COC[C@H](C2)N1c1ncc(-c2cccc(OC(F)F)c2)o1 [Example 171, N-[(4S,8S)-10-{5-[3-(difluoromethoxy)phenyl]-1,3-oxazol-2-yl}-4,7,8,9-tetrahydro-5H-4,8-epiminooxocino[5,4-d][1,3]thiazol-2-yl]-N′-[(2R)-2-hydroxypropyl]urea]	0.55
